According to patent publication US20240148425A1, “COSMETIC COMPOSITION INTENDED FOR THE TREATMENT OF SKIN HYPERPIGMENTATION AND TREATMENT METHOD USING SAID COMPOSITION” (priority 2021, published 2024):

Key:
[1] = system: IL-1β marker in keratinocytes; assay: IL-1β irritation marker in keratinocytes after cryogenic gas sequences; type: cell-based; settings: +14° C. with 4 successive oscillations vs subzero dose (EC16, −16° C.), same level of keratinocyte viability
From the text: Finally, on the other constituent cells of the epidermis (keratinocytes), experiments have shown that oscillations within an above-zero temperature range caused a lesser effect on certain irritation markers compared to the application of a single cryogenic gas within a subzero temperature range while causing an identical reduction in the viability of the keratinocytes (see FIG. 3). […] Likewise, since the irritation is directly related to the mortality induced by keratinocytes, it could have been thought that for an identical reduction in viability, the irritation would be identical.
FIG. 3 is a graph showing the variation over time of the (IL-1β) marker of the irritation for keratinocytes subjected to two sequences making it possible to achieve the same level of viability, a sequence (EC16) located in a subzero temperature range (−16° C.) and the other sequence (EC14) in an above-zero temperature range (+14° C.).
The development of the invention has given rise to numerous experiments relating to the optimization of atomization sequences. These sequences were tested on cell culture models in order to determine, in particular, their incidence on the cell viability of the melanocytes and keratinocytes. The main markers of irritation were also measured.

keratinocytes = assay: viability of keratinocytes by protein assay; type: cell-based; settings: certain temperatures, especially +05° C.; patent attributes it to quiescence bias
From the text: Other tests conducted within the scope of the development of the invention have shown that an experiment bias existed in the measurement of the viability of the keratinocytes by protein assay.

[2] = system: actinic lentigines on the back of hands; settings: cooling cycle of 3 to 5 seconds; biopsies 3 weeks after the treatment; cited from earlier work
skin pigmentation = settings: brief 5-second cooling by atomizing liquid nitrogen at −196° C., margin 1 to 5 mm beyond the wound; cited from earlier work

Method for melanocytes: By way of example, when the viability of the melanocytes is compared between the application of a dose of atomized cryogenic gas making it possible to reach a target temperature of −10° C. (sequence referenced EC-10) on the epidermis from its normal starting temperature (34° C.) in an environment at room temperature (23° C.), and the application of a dose making it possible to reach a temperature of 0° C.
Therefore, experiments (cell cultures-in vitro) were conducted in the context of the invention to determine the effects of different temperatures (+10, +5, 0, −5, −10, −15 and 16° C.) on the mortality of the melanocytes. […] A control group of cells was tested at +23° C. After 24 h of treatment, the cell mortality was quantified by assaying the expression of the proteins (see FIG. 1).

Compound	irritant effect (IL-1β marker) [1]	viability of the keratinocytes by protein assay (keratinocytes)	decrease of viability of the melanocytes relative to the control group (melanocytes) [%]	reduction of the viability of the melanocytes (melanocytes)	mortality rate of melanocytes versus control group (melanocytes; EC+10 sequence (+10° C.), control at +23° C.)	viability of the melanocytes, sequence EC-10 (−10° C.) compared with EC00 (0° C.) (melanocytes; EC-10 vs EC00, start 34° C., room temperature 23° C.)	skin pigmentation in biopsies [2]	pigment change of skin (skin pigmentation)
CC(F)F [cryogenic gas, 1,1-difluoroethane]	less than that observed with a dose making it possible to achieve subzero temperatures	a reduction in the viability of the keratinocytes	40	about 40%	very different from that obtained for the control group	remains the same	–	–
N#N [liquid nitrogen]	–	–	–	–	–	–	reduces skin pigmentation	hypopigmentation persists
